Source: patent publication US10597388B2, “Pyridazinone herbicides” (FMC CORPORATION, priority 2014, dated 2020)

Tests used:
Test in all cases: Test D controlled growth environment herbicide test, pre- and postemergence
Format in all cases: in vivo
[1] = system: bromegrass, downy (downy bromegrass, Bromus tectorum)
Text: (§1) Seeds of plant species selected from bluegrass (annual bluegrass, Poa annua), blackgrass (Alopecurus myosuroides), Canada thistle (Cirsium arvense), canarygrass (Phalaris minor), chickweed (common chickweed, Stellaria media), geranium, cutleaf (cutleaf geranium, Geranium dissectum), galium (catchweed bedstraw, Galium aparine), bromegrass, downy (downy bromegrass, Bromus tectorum), field poppy (Papaver rhoeas), field violet (Viola arvensis), foxtail, green (green foxtail, Setaria viridis), deadnettle (henbit deadnettle, Lamium amplexicaule), ryegrass, Italian (Italian ryegrass, Lolium multiflorum), kochia (Kochia scoparia), lambsquarters (Chenopodium album), oilseed rape (Brassica napus), pigweed (Amaranthus retroflexus), chamomile (scentless chamomile, Matricaria inodora), Russian thistle (Salsola kali), speedwell (bird's-eye speedwell, Veronica persica), barley, spring (spring barley, Hordeum vulgare), wheat, spring (spring wheat, Triticum aestivum), buckwheat, wild (wild buckwheat, Polygonum convolvulus), mustard, wild (wild mustard, Sinapis arvensis), oat, wild (wild oat, Avena fatua), radish, wild (wild radish, Raphanus raphanistrum), windgrass (Apera spica-venti), barley, winter (winter barley, Hordeum vulgare), and wheat, winter (winter wheat, Triticum aestivum) were planted into a silt loam soil and treated preemergence with test chemicals formulated in a non-phytotoxic solvent mixture which included a surfactant.
(§2) At the same time, these species were planted in pots containing Redi-Earth® planting medium (Scotts Company, 14111 Scottslawn Road, Marysville, Ohio 43041) comprising spaghnum peat moss, vermiculite, wetting agent and starter nutrients and treated with postemergence applications of the test chemicals formulated in the same manner. Plants ranged in height from 2 to 18 cm (1- to 4-leaf stage). Treated plants and controls were maintained in a controlled growth environment for 14 to 21 d after which time all species were compared to controls and visually evaluated. Plant response ratings, summarized in Table D, are based on a scale of 0 to 100 where 0 is no effect and 100 is complete control. A dash (-) response means no test result.

[2] = system: wheat, winter (winter wheat, Triticum aestivum)
Text: as §1, §2

[3] = system: mustard, wild (wild mustard, Sinapis arvensis)
Text: as §1, §2

[4] = system: wheat, spring (spring wheat, Triticum aestivum)
Text: as §1, §2

[5] = system: chickweed (common chickweed, Stellaria media)
Text: as §1, §2

[6] = system: speedwell (bird's-eye speedwell, Veronica persica)
Text: as §1, §2

[7] = system: oat, wild (wild oat, Avena fatua)
Text: as §1, §2

[8] = system: foxtail, green (green foxtail, Setaria viridis)
Text: as §1, §2

[9] = system: oilseed rape (Brassica napus)
Text: as §1, §2

[10] = system: deadnettle (henbit deadnettle, Lamium amplexicaule)
Text: as §1, §2

[11] = system: ryegrass, Italian (Italian ryegrass, Lolium multiflorum)
Text: as §1, §2

[12] = system: blackgrass (Alopecurus myosuroides)
Text: as §1, §2

[13] = Postemergence, 31 g ai/ha, scale 0 to 100 (0 no effect, 100 complete control)
[14] = Postemergence, 125 g ai/ha, visual rating on scale 0 (no effect) to 100 (complete control), 14 to 21 d
[15] = Postemergence, 250 g ai/ha, scale 0 to 100 (0 no effect, 100 complete control)
[16] = Preemergence, 62 g ai/ha, scale 0 to 100 (0 no effect, 100 complete control)
[17] = Preemergence, 125 g ai/ha, scale 0 to 100 (0 no effect, 100 complete control)
[18] = Preemergence, 250 g ai/ha, scale 0 to 100, 0 no effect, 100 complete control
[19] = postemergence, 62 g ai/ha, scale 0 to 100, 0 no effect, 100 complete control

## CCc1sc2ccc(C)cc2c1-c1c(O)c(C)nn(C)c1=O [Compound 47]
[1]; [13]
  Bromegrass, Downy plant response rating: 5
[1]; [14]
  Plant response rating, Bromegrass, Downy: 5
[1]; [15]
  Plant response rating, Bromegrass, Downy: 5
[1]; Preemergence, 31 g ai/ha
  Plant response rating (scale of 0 to 100), Bromegrass, Downy: 5
[1]; [16]
  Plant response rating, Bromegrass, Downy: 10
[1]; [17]
  Plant response rating, Bromegrass, Downy: 15
[1]; [18]
  Plant response rating, Bromegrass, Downy: 15
[1]; [19]
  Plant response rating, Bromegrass, Downy: 0
[2]; [13]
  Wheat, Winter plant response rating: 5
[2]; [14]
  Plant response rating, Wheat, Winter: 10
[2]; [15]
  Plant response rating, Wheat, Winter: 5
[2]; Preemergence, 31 g ai/ha
  Plant response rating (scale of 0 to 100), Wheat, Winter: 5
[2]; [16]
  Plant response rating, Wheat, Winter: 5
[2]; [17]
  Plant response rating, Wheat, Winter: 10
[2]; [18]
  Plant response rating, Wheat, Winter: 10
[2]; [19]
  Plant response rating, Wheat, Winter: 5
[3]; [13]
  Mustard, Wild plant response rating: 0
[3]; [14]
  Plant response rating, Mustard, Wild: 15
[3]; [15]
  Plant response rating, Mustard, Wild: 25
[3]; Preemergence, 31 g ai/ha
  Plant response rating (scale of 0 to 100), Mustard, Wild: 10
[3]; [16]
  Plant response rating, Mustard, Wild: 20
[3]; [17]
  Plant response rating, Mustard, Wild: 40
[3]; [18]
  Plant response rating, Mustard, Wild: 65
[3]; [19]
  Plant response rating, Mustard, Wild: 0
[4]; [13]
  Wheat, Spring plant response rating: 10
[4]; [14]
  Plant response rating, Wheat, Spring: 15
[4]; [15]
  Plant response rating, Wheat, Spring: 15
[4]; Preemergence, 31 g ai/ha
  Plant response rating (scale of 0 to 100), Wheat, Spring: 5
[4]; [16]
  Plant response rating, Wheat, Spring: 5
[4]; [17]
  Plant response rating, Wheat, Spring: 15
[4]; [18]
  Plant response rating, Wheat, Spring: 15
[4]; [19]
  Plant response rating, Wheat, Spring: 10
[5]; [13]
  Chickweed plant response rating: 90
[5]; [14]
  Plant response rating, Chickweed: 95
[5]; [15]
  Plant response rating, Chickweed: 100
[5]; Preemergence, 31 g ai/ha
  Plant response rating (scale of 0 to 100), Chickweed: 90
[5]; [16]
  Plant response rating, Chickweed: 95
[5]; [17]
  Plant response rating, Chickweed: 100
[5]; [18]
  Plant response rating, Chickweed: 90
[5]; [19]
  Plant response rating, Chickweed: 95
[6]; [13]
  Speedwell plant response rating: 10
[6]; [14]
  Plant response rating, Speedwell: 40
[6]; [15]
  Plant response rating, Speedwell: 50
[6]; Preemergence, 31 g ai/ha
  Plant response rating (scale of 0 to 100), Speedwell: 25
[6]; [16]
  Plant response rating, Speedwell: 25
[6]; [17]
  Plant response rating, Speedwell: 80
[6]; [18]
  Plant response rating, Speedwell: 100
[6]; [19]
  Plant response rating, Speedwell: 10
[7]; [13]
  Oat, Wild plant response rating: 10
[7]; [14]
  Plant response rating, Oat, Wild: 20
[7]; [15]
  Plant response rating, Oat, Wild: 40
[7]; Preemergence, 31 g ai/ha
  Plant response rating (scale of 0 to 100), Oat, Wild: 10
[7]; [16]
  Plant response rating, Oat, Wild: 20
[7]; [17]
  Plant response rating, Oat, Wild: 35
[7]; [18]
  Plant response rating, Oat, Wild: 40
[7]; [19]
  Plant response rating, Oat, Wild: 15
[8]; [13]
  Foxtail, Green plant response rating: 50
[8]; [14]
  Plant response rating, Foxtail, Green: 70
[8]; [15]
  Plant response rating, Foxtail, Green: 80
[8]; Preemergence, 31 g ai/ha
  Plant response rating (scale of 0 to 100), Foxtail, Green: 0
[8]; [16]
  Plant response rating, Foxtail, Green: 25
[8]; [17]
  Plant response rating, Foxtail, Green: 60
[8]; [18]
  Plant response rating, Foxtail, Green: 100
[8]; [19]
  Plant response rating, Foxtail, Green: 60
[9]; [13]
  Oilseed Rape plant response rating: 20
[9]; [14]
  Plant response rating, Oilseed Rape: 55
[9]; [15]
  Plant response rating, Oilseed Rape: 70
[9]; Preemergence, 31 g ai/ha
  Plant response rating (scale of 0 to 100), Oilseed Rape: 0
[9]; [16]
  Plant response rating, Oilseed Rape: 0
[9]; [17]
  Plant response rating, Oilseed Rape: 10
[9]; [18]
  Plant response rating, Oilseed Rape: 15
[9]; [19]
  Plant response rating, Oilseed Rape: 20
[10]; [13]
  Deadnettle plant response rating: 20
[10]; [14]
  Plant response rating, Deadnettle: 30
[10]; [15]
  Plant response rating, Deadnettle: 30
[10]; Preemergence, 31 g ai/ha
  Plant response rating (scale of 0 to 100), Deadnettle: 0
[10]; [16]
  Plant response rating, Deadnettle: 10
[10]; [17]
  Plant response rating, Deadnettle: 10
[10]; [18]
  Plant response rating, Deadnettle: 65
[10]; [19]
  Plant response rating, Deadnettle: 20
[11]; [13]
  Ryegrass, Italian plant response rating: 10
[11]; [14]
  Plant response rating, Ryegrass, Italian: 30
[11]; [15]
  Plant response rating, Ryegrass, Italian: 45
[11]; Preemergence, 31 g ai/ha
  Plant response rating (scale of 0 to 100), Ryegrass, Italian: 20
[11]; [16]
  Plant response rating, Ryegrass, Italian: 30
[11]; [17]
  Plant response rating, Ryegrass, Italian: 60
[11]; [18]
  Plant response rating, Ryegrass, Italian: 70
[11]; [19]
  Plant response rating, Ryegrass, Italian: 10
[12]; [13]
  Blackgrass plant response rating: 25
[12]; [14]
  Plant response rating, Blackgrass: 35
[12]; [15]
  Plant response rating, Blackgrass: 65
[12]; Preemergence, 31 g ai/ha
  Plant response rating (scale of 0 to 100), Blackgrass: 5
[12]; [16]
  Plant response rating, Blackgrass: 20
[12]; [17]
  Plant response rating, Blackgrass: 30
[12]; [18]
  Blackgrass plant response rating: 50
[12]; [19]
  Plant response rating, Blackgrass: 25
